We go through six compounds from US20220340633A1 (Adepthera LLC, priority 2016, published 2022).

“Also recorded” adds a separate entry of the source. Positions of bridges follow the written chain, without caps; N, C: chain ends. Non-standard residues stand in square brackets, D forms with d. Residues, ends and D or L forms follow the SMILES beside them. *: point of attachment. Palmitoyl = CCCCCCCCCCCCCCCC(=O)*; AEEA = NCCOCCOCC(=O)O

For one assay, the target named is T1, CLR/RAMP2 receptor (Homo sapiens, UniProt O60895+Q16602).
T1 construct: host or cells: CHO-K1 cells
T1 sequence (Q16602 23-461): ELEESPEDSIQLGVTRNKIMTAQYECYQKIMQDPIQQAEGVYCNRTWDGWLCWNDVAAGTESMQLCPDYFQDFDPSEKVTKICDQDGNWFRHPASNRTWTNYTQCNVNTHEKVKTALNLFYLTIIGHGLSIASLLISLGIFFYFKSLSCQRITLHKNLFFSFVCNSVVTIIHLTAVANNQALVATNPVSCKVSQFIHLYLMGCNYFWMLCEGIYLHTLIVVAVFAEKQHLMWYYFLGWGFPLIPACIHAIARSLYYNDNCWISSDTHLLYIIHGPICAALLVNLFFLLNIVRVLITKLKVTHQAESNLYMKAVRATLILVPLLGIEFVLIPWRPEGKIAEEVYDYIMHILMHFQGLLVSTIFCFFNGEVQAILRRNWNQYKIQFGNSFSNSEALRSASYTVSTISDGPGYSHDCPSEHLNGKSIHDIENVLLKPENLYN
T1 sequence (O60895 43-175): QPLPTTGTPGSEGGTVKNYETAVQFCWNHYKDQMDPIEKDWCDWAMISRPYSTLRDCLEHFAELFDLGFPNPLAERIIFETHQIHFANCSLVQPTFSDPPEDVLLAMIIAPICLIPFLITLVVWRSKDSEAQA
Put plainly: CLR/RAMP2 arrestin receptor activation assay (agonist). It is filed as cell-based. The settings on record: for EC50: CHO-K1 cells stably expressing CLR/RAMP2, arrestin, positive control ADM, read-out: CLR/RAMP 2 EC50; for Emax: CHO-K1, read-out: CLR/RAMP 2 Max Activity % of positive control, CHO-K1 cells.

Assay [1] concerns the target T2, CLR/RAMP3 receptor (Homo sapiens, UniProt O60896+Q16602). Put plainly: CLR/RAMP3 cAMP receptor activation assay (agonist). The settings on record: CHO-K1, read-out: CLR/RAMP 3 Max Activity % of positive control. More on the design: host or cells: CHO-K1 cells. It is filed as cell-based.
Experimental: (§1) Using a receptor activation assay, the dose-dependent stimulatory response of peptide agonists of the present invention on a CLR/RAMP1 receptor, a CLR/RAMP2, or a CLR/RAMP3 receptor complex was determined. A cell line carrying the recombinant CLR/RAMP1, CLR/RAMP2, or a CLR/RAMP3 receptor was employed in the assay. Peptide agonist activities were tested, in duplicate, at 10 different concentrations, starting with 1.0 μM and serially diluted 3-fold, in DMSO. […] The CLR/RAMP1 cAMP, CLR/RAMP2 arrestin assays, and CLR/RAMP3 cAMP (DiscoveRx, Fremont, Calif.) were used.
In assay [2] the test system is primary human lymphatic endothelia cells (HLEC). The assay is described as follows: HLEC proliferation in medium with 2% FBS, MTS assay. The following applies: 30, 100, and 300 nM, 72 hrs. On the technique in general: Tetrazolium assays rely on reduction of a dye to a coloured formazan, in cell work by metabolically active cells.
Experimental: (§2) The cells were cultured for 72 hrs, and cell viability was assayed with the MTS assay (Promega).
Assay [3] has the same test system. Put plainly: HLEC survival in medium with 0.1% FBS, MTS assay. The settings on record: 30, 100, and 300 nM, 72 hrs.
Experimental: as §2
For assay [4], the target named is T3, CLR/RAMP1 receptor (Homo sapiens, UniProt O60894+Q16602). Put plainly: CLR/RAMP1 cAMP receptor activation assay (agonist). The assay is classed as cell-based. More on the design: host or cells: 1321N1 cells. The settings on record: for Emax: 1321-N1, read-out: CLR/RAMP 1 Max Activity % of positive control, 1321N1 cells, % of positive control (β-CGRP); for EC50: 1321N1 cells stably expressing CLR/RAMP1, cAMP, positive control β-CGRP, read-out: CLR/RAMP 1 EC50.
T3 sequence (Q16602 23-461): as the sequence (Q16602 23-461) above
T3 sequence (O60894 27-148): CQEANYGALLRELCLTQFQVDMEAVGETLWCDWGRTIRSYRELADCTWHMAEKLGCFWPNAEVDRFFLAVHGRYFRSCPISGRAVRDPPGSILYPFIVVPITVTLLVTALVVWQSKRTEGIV
Experimental: as §1

Assay [5] deals with T2, CLR/RAMP3 receptor. The assay is described as follows: cell-based.
Experimental: as §1
(§3) For the analysis of antagonistic activity, the synthetic analogs were pre-incubated with the cells before adding the reference ligand at its EC80.
Assay [6] deals with T3, CLR/RAMP1 receptor. The following applies: CLR/RAMP1 versus CLR/RAMP2.
Experimental: as §1, §3

T2 sequence (Q16602 23-461): as the sequence (Q16602 23-461) above
T2 sequence (O60896 24-148): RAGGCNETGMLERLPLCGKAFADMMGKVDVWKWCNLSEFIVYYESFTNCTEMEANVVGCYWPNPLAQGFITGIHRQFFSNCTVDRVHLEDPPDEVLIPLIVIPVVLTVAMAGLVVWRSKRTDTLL

Turning to `CCCCCCCCCCCCCCCC(=O)NCCCC[C@H](NC(=O)COCCOCCN)C(=O)NCC(=O)N[C@H]1CSSC[C@@H](C(=O)N[C@H](C(=O)N[C@H](C(=O)N[C@@H](CCC(N)=O)C(=O)N[C@@H](CCCCN)C(=O)N[C@@H](CC(C)C)C(=O)N[C@@H](C)C(=O)N[C@@H](Cc2c[nH]cn2)C(=O)N[C@@H](CCC(N)=O)C(=O)N[C@H](C(=O)N[C@@H](Cc2ccc(O)cc2)C(=O)N[C@@H](CCC(N)=O)C(=O)N[C@@H](Cc2ccccc2)C(=O)N[C@H](C(=O)N[C@@H](CC(=O)O)C(=O)N[C@@H](CCCCN)C(=O)N[C@@H](CC(=O)O)C(=O)N[C@@H](CCCCN)C(=O)N[C@@H](CC(=O)O)C(=O)N[C@@H](CC(N)=O)C(=O)N[C@@H](CO)C(=O)N[C@@H](C)C(=O)N2CCC[C@H]2C(=O)N[C@H](C(=O)N[C@@H](CC(=O)O)C(=O)N2CCC[C@H]2C(=O)N[C@@H](CO)C(=O)N[C@@H](CO)C(=O)N2CCC[C@H]2C(=O)N[C@@H](Cc2c[nH]cn2)C(=O)N[C@@H](CO)C(=O)N[C@@H](Cc2ccc(O)cc2)C(N)=O)C(C)C)[C@@H](C)O)[C@@H](C)CC)C(C)C)[C@@H](C)O)NC(=O)[C@H]([C@@H](C)O)NC(=O)CNC(=O)[C@H](Cc2ccccc2)NC(=O)[C@H](CCCNC(=N)N)NC1=O` [SEQ ID NO: 28], the results for the EC50 at CLR/RAMP2 receptor and at CLR/RAMP1 receptor [4] were 0.5 nM and 0.3 nM, respectively. For the same compound, the “CLR/RAMP 2 Max Activity % of positive control” value at CLR/RAMP2 receptor (CHO-K1 cells, % of positive control (ADM)) stood at 143%. Also, the Emax at CLR/RAMP3 receptor [1] amounted to 117%; on CLR/RAMP1 receptor [4], 54%. For the same compound, in assay [2], the “HLEC proliferation (in words)” value is “dose-dependently stimulated; also recorded: significantly promote”. Further, the “HLEC survival (in words)” value in assay [3] is reported as “dose-dependently stimulated; also recorded: significantly promote”.
As for `CCCCCCCCCCCCCCCC(=O)NCCCC[C@H](NC(=O)COCCOCCN)C(=O)NCC(=O)N[C@H]1CSSC[C@@H](C(=O)N[C@H](C(=O)N[C@H](C(=O)N[C@@H](CCC(N)=O)C(=O)N[C@@H](CCCCN)C(=O)N[C@@H](CC(C)C)C(=O)N[C@@H](C)C(=O)N[C@@H](Cc2c[nH]cn2)C(=O)N[C@@H](CCC(N)=O)C(=O)N[C@H](C(=O)N[C@@H](Cc2ccc(O)cc2)C(=O)N[C@@H](CCC(N)=O)C(=O)N[C@@H](Cc2ccccc2)C(=O)N[C@H](C(=O)N[C@@H](CC(=O)O)C(=O)N[C@@H](CCCCN)C(=O)N[C@@H](CC(=O)O)C(=O)N[C@@H](CO)C(=O)N[C@@H](C)C(=O)N2CCC[C@H]2C(=O)N[C@H](C(=O)N[C@@H](CC(=O)O)C(=O)N2CCC[C@H]2C(=O)N[C@@H](CO)C(=O)N[C@@H](CO)C(=O)N2CCC[C@H]2C(=O)N[C@@H](Cc2c[nH]cn2)C(=O)N[C@@H](CO)C(=O)N[C@@H](Cc2ccc(O)cc2)C(N)=O)C(C)C)[C@@H](C)O)[C@@H](C)CC)C(C)C)[C@@H](C)O)NC(=O)[C@H]([C@@H](C)O)NC(=O)CNC(=O)[C@H](Cc2ccccc2)NC(=O)[C@H](CCCNC(=N)N)NC1=O` [SEQ ID NO: 48] (H-[AEEA]K(Palmitoyl)GCRFGTCTVQKLAHQIYQFTDKDSAPVDPSSPHSY-NH2; disulfide 4-9), the Emax at CLR/RAMP2 receptor (% of positive control (ADM)) stood at 77%; on CLR/RAMP3 receptor [1] it was 141%; at CLR/RAMP1 receptor [4] it was 78%. Besides, the EC50 at CLR/RAMP2 receptor was determined as 0.2 nM; on CLR/RAMP1 receptor [4], 0.3 nM.
On to `CC[C@H](C)[C@H](NC(=O)[C@H](CCC(N)=O)NC(=O)[C@H](Cc1c[nH]cn1)NC(=O)[C@H](C)NC(=O)[C@H](CC(C)C)NC(=O)[C@H](CCCCN)NC(=O)[C@H](CCC(N)=O)NC(=O)[C@@H](NC(=O)[C@@H](NC(=O)[C@@H]1CSSC[C@H](NC(=O)CNC(=O)[C@H](Cc2ccccc2)NC(C)=O)C(=O)N[C@@H](CCCNC(=N)N)C(=O)N[C@@H](Cc2ccccc2)C(=O)NCC(=O)N[C@@H]([C@@H](C)O)C(=O)N1)[C@@H](C)O)C(C)C)C(=O)N[C@@H](Cc1ccc(O)cc1)C(=O)N[C@@H](CCC(N)=O)C(=O)N[C@@H](Cc1ccccc1)C(=O)N[C@H](C(=O)N[C@@H](CC(=O)O)C(=O)N[C@@H](CCCCN)C(=O)N[C@@H](CC(=O)O)C(=O)N[C@@H](CCCCN)C(=O)N[C@@H](CC(=O)O)C(=O)N[C@@H](CC(N)=O)C(=O)N[C@H](C(=O)N[C@@H](C)C(=O)N1CCC[C@H]1C(=O)N[C@@H](CCCNC(=N)N)C(=O)N[C@@H](CO)C(=O)N[C@@H](CCCCN)C(=O)N[C@H](C(=O)N[C@@H](CO)C(=O)N1CCC[C@H]1C(=O)N[C@@H](CCC(N)=O)C(=O)NCC(=O)N[C@@H](Cc1ccc(O)cc1)C(N)=O)[C@@H](C)CC)C(C)C)[C@@H](C)O` [SEQ ID NO: 53, reference compound], for which the figures for the Emax on CLR/RAMP2 receptor (% of positive control (ADM)) and at CLR/RAMP1 receptor [4] were 102% and 69%, respectively. Besides, the “HLEC proliferation (in words)” value in assay [2] was “minimal effects; also recorded: negligible effects”. The “HLEC survival (in words)” value in assay [3] is recorded as “minimal effects; also recorded: negligible effects”.
Consider `CC[C@H](C)[C@H](NC(=O)[C@H](CCC(N)=O)NC(=O)[C@H](Cc1c[nH]cn1)NC(=O)[C@H](C)NC(=O)[C@H](CC(C)C)NC(=O)[C@H](CCCCN)NC(=O)[C@H](CCC(N)=O)NC(=O)[C@@H](NC(=O)[C@@H](NC(=O)[C@@H]1CSSC[C@H](NC(=O)CNC(=O)[C@H](Cc2ccccc2)NC(=O)[C@H](CO)NC(=O)[C@H](CCCNC(=N)N)NC(=O)[C@H](CC(C)C)NC(=O)CNC(=O)[C@H](CCC(N)=O)NC(=O)[C@H](Cc2ccccc2)NC(=O)[C@H](CC(N)=O)NC(=O)[C@H](CC(N)=O)NC(=O)[C@H](CCSC)NC(=O)[C@H](CO)NC(=O)[C@H](CCC(N)=O)NC(=O)[C@H](CCCNC(=N)N)NC(=O)[C@H](Cc2ccc(O)cc2)NC(C)=O)C(=O)N[C@@H](CCCNC(=N)N)C(=O)N[C@@H](Cc2ccccc2)C(=O)NCC(=O)N[C@@H]([C@@H](C)O)C(=O)N1)[C@@H](C)O)C(C)C)C(=O)N[C@@H](Cc1ccc(O)cc1)C(=O)N[C@@H](CCC(N)=O)C(=O)N[C@@H](Cc1ccccc1)C(=O)N[C@H](C(=O)N[C@@H](CC(=O)O)C(=O)N[C@@H](CCCCN)C(=O)N[C@@H](CC(=O)O)C(=O)N[C@@H](CCCCN)C(=O)N[C@@H](CC(=O)O)C(=O)N[C@@H](CC(N)=O)C(=O)N[C@H](C(=O)N[C@@H](C)C(=O)N1CCC[C@H]1C(=O)N[C@@H](CCCNC(=N)N)C(=O)N[C@@H](CO)C(=O)N[C@@H](CCCCN)C(=O)N[C@H](C(=O)N[C@@H](CO)C(=O)N1CCC[C@H]1C(=O)N[C@@H](CCC(N)=O)C(=O)NCC(=O)N[C@@H](Cc1ccc(O)cc1)C(N)=O)[C@@H](C)CC)C(C)C)[C@@H](C)O` [SEQ ID NO: 54, reference compound], for which the “HLEC proliferation (in words)” value in assay [2] was “minimal effects; also recorded: negligible effects”. In addition, in assay [3], the “HLEC survival (in words)” value is recorded as “minimal effects; also recorded: negligible effects”.
Regarding `CCCCCCCCCCCCCCCC(=O)NCCCC[C@H](NC(=O)COCCOCCN)C(=O)NCC(=O)N[C@H]1CSSC[C@@H](C(=O)N[C@H](C(=O)N[C@H](C(=O)N[C@@H](CCC(N)=O)C(=O)N[C@@H](CCCCN)C(=O)N[C@@H](CC(C)C)C(=O)N[C@@H](C)C(=O)N[C@@H](Cc2c[nH]cn2)C(=O)N[C@@H](CCC(N)=O)C(=O)N[C@H](C(=O)N[C@@H](Cc2ccc(O)cc2)C(=O)N[C@@H](CCC(N)=O)C(=O)N[C@@H](Cc2ccccc2)C(=O)N[C@H](C(=O)N[C@@H](CC(=O)O)C(=O)N[C@@H](CCCCN)C(=O)N[C@@H](CC(=O)O)C(=O)N[C@H](C(=O)N[C@@H](C)C(=O)N2CCC[C@H]2C(=O)N[C@@H](CCCNC(=N)N)C(=O)N[C@@H](CO)C(=O)N[C@@H](CCCCN)C(=O)N[C@H](C(=O)N[C@@H](CO)C(=O)N2CCC[C@H]2C(=O)N[C@@H](CCC(N)=O)C(=O)NCC(=O)N[C@@H](Cc2ccc(O)cc2)C(N)=O)[C@@H](C)CC)C(C)C)[C@@H](C)O)[C@@H](C)CC)C(C)C)[C@@H](C)O)NC(=O)[C@H]([C@@H](C)O)NC(=O)CNC(=O)[C@H](Cc2ccccc2)NC(=O)[C@H](CCCNC(=N)N)NC1=O` [SEQ ID NO: 101], the results for the Emax at CLR/RAMP2 receptor (% of positive control (ADM)), at CLR/RAMP3 receptor [1] and on CLR/RAMP1 receptor [4] were 74%, 129% and 56%, respectively. Besides, the “receptor specificity of agonist” value on CLR/RAMP2 receptor (CLR/RAMP2 versus CLR/RAMP1) is “CLR/RAMP2-specific”.
Regarding `CCCCCCCCCCCCCCCC(=O)N[C@@H](CCCCN)C(=O)N[C@H](C(=O)N[C@@H](CCC(N)=O)C(=O)N[C@@H](CCCCN)C(=O)N[C@@H](CC(C)C)C(=O)N[C@@H](C)C(=O)N[C@@H](Cc1c[nH]cn1)C(=O)N[C@@H](CCC(N)=O)C(=O)N[C@H](C(=O)N[C@@H](Cc1ccc(O)cc1)C(=O)N[C@@H](CCC(N)=O)C(=O)N[C@@H](Cc1ccccc1)C(=O)N[C@H](C(=O)N[C@@H](CC(=O)O)C(=O)N[C@@H](CCCCN)C(=O)N[C@@H](CC(=O)O)C(=O)N[C@H](C(=O)N[C@@H](C)C(=O)N1CCC[C@H]1C(=O)N[C@@H](CCCNC(=N)N)C(=O)N[C@@H](CO)C(=O)N[C@@H](CCCCN)C(=O)N[C@H](C(=O)N[C@@H](CO)C(=O)N1CCC[C@H]1C(=O)N[C@@H](CCC(N)=O)C(=O)NCC(=O)N[C@@H](Cc1ccc(O)cc1)C(N)=O)[C@@H](C)CC)C(C)C)[C@@H](C)O)[C@@H](C)CC)C(C)C` [SEQ ID NO: 119], the IC50 (as a rule, the concentration at which inhibition is half-maximal) at CLR/RAMP3 receptor [5] fell in the range of 0.8 to 9.2 nM. Besides, on CLR/RAMP1 receptor [6], the “receptor specificity of antagonist” value is “CLR/RAMP2-specific”.
